Measured values published in patent US11472807B2, “Purine derivatives for use as medicament and for use in treating neurodegenerative or neuro-inflammatory disorders” (COMMISSARIAT À L'ENERGIE ATOMIQUE ET AUX ENERGIES …, priority 2017, dated 2022).
Where two headings read alike, the source gives them in different places.

Assays:
IL-1β = IL-1β mRNA in OHSC (RT-qPCR); format: cell-based, mice; conditions: 50 μM, 10 days, vs vehicle, P<0.001
Method: (§1) FIG. 10. Plots illustrating the effect of Aftin-5 on relative mRNA expression levels of interleukin-1-beta (IL-1β; (A)), interleukin-6 (IL-6; (B)), TNF-alpha (TNFα; (C)) and interleukin-10 (IL-10; (D)) in organotypic hippocampal slice cultures (OHSC). OHSC culture media […] were replaced by incubation medium containing Aftin-5 (50 μM; A50) or vehicle (0.1% DMSO; Veh). 10 days later, total mRNA in lysate was isolated and purified, cDNAs were then synthesized from […] of total mRNA. cDNAs were amplified by quantitative RT-PCR and the relative expression of specific genes was normalized to the housekeeping gene HPRT1 (2^−ΔCt). Mann-Whitney tests were performed and ***p<0.001 indicates significant differences between Aftin-5 and control conditions. Data expressed as means+/−SEM from q=3 independent experiments with n=4-6 inserts/condition and 10 slices/insert. […]
(§2) The impact of Aftin-5 on gene expression of different biomarkers was determined by measuring mRNA levels of selected BDNF, CREB, PS95, INS Receptor/IGF-1 receptor, IL-1β, IL-6 in OHSC treated chronically with Aftin-5 or in a total brain from mice exposed to Aftin-5 at either 8 or 30 mg/Kg. […] Threshold cycles (Ct) of target gene and cyclophilin A (Ppia−control housekeeping gene) were recorded and gene expression was calculated as 2^−ΔΔCt(ΔΔCt=ΔCttreated−ΔCtcontrol, ΔCt=Cttarget−CtPpia). […]

[1] = Pharmacokinetics of Aftin-5 in mice after single PO or IP dose; format: in vivo; conditions: for Tmax / Cmax / Kp: mouse; for Kp: brain/plasma, read-out: brain/plasma partition coefficient (Kpbrain/plasma)
Text: In addition, pharmacokinetic experiments of Aftin-5 in mice confirmed the ability of the compound to reach the brain. The PK parameters are plotted in Table 3 below.
The brain/plasma partition coefficient (Kpbrain/plasma) was about 0.014 and 0.033 for oral and IP administration, respectively.

[2] = system: in vitro cell based rat BBB model
Method: A 20% BSA gradient was used for isolation of capillaries. After a second enzymatic digestion, cells were plated in 75 cm^2 coated culture flasks in EBM medium completed by the EGM-2 MV Single Quots kit (Lonza, Basel, Switzerland). Cultures were maintained at 37° C. in a humidified 5% CO2 atmosphere for 5-6 days before being trypsinized and frozen.
The chambers containing human glial cells and brain endothelial cells were considered as the basolateral and apical compartment, respectively. The microplates were then incubated at 37° C. in a 5% CO2 atmosphere. Under these experimental conditions, brain endothelial cells formed a confluent monolayer within 15 days.
After checking BBB integrity, Transwells® with BEC monolayers were transferred to new plates. T buffer (150 mM NaCl, 5.2 mM KCl, 2.2 mM CaCl2, 0.2 mM MgCl2, 6 mM NaHCO3, 2.8 mM glucose and 5 mM Hepes) was added 1.5 mL to the basal chamber (B) and 0.5 ml to the apical chamber (A). […] The Papp value was calculated as followed: Papp=dQ/dT×A×C0 (1) where dQ/dT: amount of drug transported per time-point; A: membrane surface area; Co: donor concentration at time-point 0. […] The mass balance was calculated as follows: R (%)=([(Ap+Bs)/A0]×100 (2) where Ap and Bs are the amount of tested compounds in the apical and basal compartments, respectively. A0 is the initial amount in the donor compartment.

IL-6 = IL-6 mRNA in OHSC (RT-qPCR); format: cell-based, mice; conditions: 50 μM, 10 days, vs vehicle, P=0.06
Method: as §1, §2

[3] = plasma, IP single dose 10 mg/kg

SMILES: CC[C@H](CO)Nc1nc(N(C)c2ccccc2)c2ncn(C(C)C)c2n1 [Aftin-5]
- IL-1β-mRNA synthesis (IL-1β): significantly decrease
- AUC0-∞ ([1]; brain, IP single dose 10 mg/kg): 441.51 nMh
- t^1/2 ([1]; brain, IP single dose 10 mg/kg): 0.6 h
- AUC0-∞ ([1]; brain, PO single dose 5 mg/kg): 115.25 nMh
- t^1/2 ([1]; brain, PO single dose 5 mg/kg): 1.8 h
- Tmax ([1]; brain, IP single dose 10 mg/kg): 4.98 min
- Tmax ([1]; brain, PO single dose 5 mg/kg): 15 min
- Cmax ([1]; brain, ip, 10 mg/kg, IP single dose 10 mg/kg): ~807 nM
- Cmax ([1]; brain, po, 5 mg/kg, PO single dose 5 mg/kg): ~44.9 nM
- Kp ([1]; IP administration, single dose 10 mg/kg): ~0.033
- Kp ([1]; oral administration, single dose 5 mg/kg): ~0.014
- Tmax [1, 3]: 4.98 min
- Tmax ([1]; plasma, PO single dose 5 mg/kg): 15 min
- Cmax ([1]; plasma, ip, 10 mg/kg, IP single dose 10 mg/kg): 22600 nM
- Cmax ([1]; plasma, po, 5 mg/kg, PO single dose 5 mg/kg): 3890 nM
- AUC0-∞ [1, 3]: 13577.63 nMh
- t^1/2 [1, 3]: ~1.2 h
- Papp compared to Papp value of memantine [2]: not significantly different
- IL-6 mRNA synthesis (IL-6): do not achieve significance
